Laboratory results: patent US20250235501A1, “Methods and Compositions for Treating or Preventing Neurological Injury or Neurological Disorders” (University of Connecticut, priority 2024, published 2025)

Assays:
NMDARs = assay: NMDAR currents in cultured cortical neurons of WT and TRPM2-KO mice (whole cell recording); assay type: cell-based, mouse
Protocol: FIGS. 4O and 4P show the effects of stausporine on NMDAR currents recorded from cortical neurons cultured for 14 days. FIG. 4O show representative NMDAR currents elicited at −80 mV by 10 μM NMDA in WT and TRPM2-KO (gM2KO) neurons treated with or without Stausporine at 1 μM for overnight. FIG. 4P show the average current amplitude (ns, p>0.05; **, p<0.01; ANOVA, Bonferroni's test; mean±SEM, n=11, 10, 10, 12 neurons from 2 mice respectively).
FIG. 4S show representative NMDAR currents elicited by NMDA in WT and TRPM2-KO neurons treated with or without endosidin2 at 1 μM for overnight.
FIGS. 5I-5K show the effects of TAT-EE3 on PKC induced changes of NMDAR currents recorded in cortical neurons of WT and TRPM2-KO. Neurons were incubated with 10 μM TAT-SC or TAT-EE3 for overnight before current recording. FIG. 5I show representative NMDAR currents elicited by 10 μM NMDA at −80 mV before and after PMA (1 μM) perfusion for 20 s. TAT-SC or TAT-EE3 10 μM was included in the pipette solution for current recording.
FIGS. 6A and 6B show the effects of TAT-EE3 on NMDAR currents in WT and gM2KO cortical neurons cultured for 14 days. […] TAT-SC or TAT-EE3 10 μM was included in the pipette solution during current recording.
Mice pups at P0 were euthanized based on animal protocol. Whole brain was dissected out immediately and immersed in ice-cold Hank's Balanced Salt Solution (HBSS). Meninges were removed thoroughly, and tissue of different brain areas was taken based on purposes. Brain tissue was cut into small pieces and digested with 0.25% trypsin (Thermal Fisher Scientific, 15090-046) in HBSS at 37° C. for 20 min. Digestion solution was quickly removed, and tissue pellets are washed with Neurobasal® Medium (Thermal Fisher Scientific, 21103-049) for 3 times. Cells were resuspended with appropriate amount of Neurobasal® Medium supplemented with 2% B27® supplement (Thermal Fisher Scientific, 17504-044), 3% horse serum (Thermal Fisher Scientific, 16050114), 0.25% L-glutamine (Thermal Fisher Scientific, 25030-081) and 1% penicillin/streptomycin (Thermal Fisher Scientific, 15140-122). Isolated cells were counted and plated on coverslips pre-coated with poly-L-lysine (Sigma-Aldrich, P4707) at a density about 500×10^3 cells/cm2 for OGD and H2O2 treatment, and 100×10^3 cells/cm2 for current recording. Cytosine arabinoside (Sigma-Aldrich, C1768) was added to maintain a concentration at 1 μM to inhibit the proliferation of non-neuronal cells. 24 h after plating, culture medium was changed to Neurobasal® Medium supplemented with 2% B27® supplement, 0.25% L-glutamine and 1% penicillin/streptomycin. The concentration of Cytosine arabinoside (araC) was increased to 2 μM. Medium was changed every 3 days. OGD and H2O2 treatment was conducted at 7th day of culture, and current recording was conducted at 7th, 10th and 14th day of culture.
Whole cell currents were recorded using an Axopatch 200B amplifier. Data were digitized at 10 or 20 kHz and digitally filtered offline at 1 kHz. Patch electrodes were pulled from borosilicate glass and fire-polished to a resistance of ˜3 MΩ when filled with internal solutions. Series resistance (Rs) was compensated up to 90% to reduce series resistance errors to <5 mV. Cells in which Rs was >10 MΩ were discarded (Du, J., Xie, J., and Yue, L. (2009). Modulation of TRPM2 by acidic pH and the underlying mechanisms for pH sensitivity. J Gen Physiol 134, 471-88).
For heterologous expression, transfected HEK-293 cells were identified by GFP fluorescence. TRPM2 current recording in transfected HEK-293T cells was performed as we previously reported (Du, J., Xie, J., and Yue, L. (2009). Intracellular calcium activates TRPM2 and its alternative spliced isoforms. Proceedings of the National Academy of Sciences 107, 7239-44; Du, J., Xie, J., and Yue, L. (2009). Modulation of TRPM2 by acidic pH and the underlying mechanisms for pH sensitivity. J Gen Physiol 134, 471-88). […]

[1] = tested on: cultured cortical neurons; assay: Mitochondrial function under OGD, Rh123 de-quenching assay; assay type: cell-based, mouse; conditions: WT neurons; 10 μM peptide overnight; 30 min OGD
Protocol: FIGS. 6F-6G show the effects of TAT-EE3 on mitochondrial function evaluated using R123 de-quenching assay. Cultured cortical from gM2KO mice, nM2KO mice and WT control littermates were incubated with 10 μM TAT-SC or TAT-EE3 for overnight before OGD exposure. […] External perfusion solution aCSF containing no Ca2+ (No Ca2+) was used as a control. WT neuron without OGD exposure was used as a control (WT control) to illustrate the rapid photo bleaching of Rh123. […] The accumulated numbers of neurons in each group for data analysis were from 3˜5 independent experiments using neurons isolated from 3 mice/group (***, p<0.001; ANOVA, Bonferroni's test; mean±SEM).
Mice pups at P0 were euthanized based on animal protocol. Whole brain was dissected out immediately and immersed in ice-cold Hank's Balanced Salt Solution (HBSS). […] Isolated cells were counted and plated on coverslips pre-coated with poly-L-lysine (Sigma-Aldrich, P4707) at a density about 500×10^3 cells/cm2 for OGD and H2O2 treatment, and 100×10^3 cells/cm2 for current recording. […]
Mitochondria function was evaluated using Rhodamine-123 dequenching as previously reported. […]
Fluorescence intensities at 509 nm with excitation at 488 nm was collected every 15 s for 30 min using CoolSNAP HQ2 (Photometrics) and data were analyzed using NIS-Elements (Nikon).

[2] = WT neurons incubated with 10 μM peptide overnight, PMA 1 μM 20 s

For “TAT-EE3: membrane permeable disrupting peptide, sequence YGRKKRRQRRREEDTDSSEEMLALAEE (SEQ ID NO: 4)”, the “NMDAR currents in neurons from TRPM2-KO mice” value (NMDARs; 10 μM peptide overnight and in pipette, neurons cultured 14 days) was “not from TRPM2-KO mice”, the “NMDAR currents in neurons from WT mice” value (NMDARs; 10 μM peptide overnight and in pipette, neurons cultured 14 days, 10 μM NMDA, -80 mV) was “efficiently reduced” and the “NMDAR current amplitude before and after PMA perfusion” value (NMDARs; [2]) was “much smaller”. For the same substance, the “increase of NMDAR current amplitude induced by PMA” value (NMDARs; [2]) was “significantly smaller than that in neurons incubated with TAT-SC”, the “PMA-induced changes of NMDAR currents, TAT-SC vs TAT-EE3” value (NMDARs; neurons from TRPM2-KO mice, 10 μM peptide overnight) was “no difference” and the “mitochondrial membrane depolarization induced by OGD (Rh123 fluorescence)” value [1] was “markedly inhibited”.
